As a reminder, the IC50 is the concentration at which inhibition is half-maximal.

One compound from US8268836B2, “Compound useful as a c-Met inhibitor” (Eli Lilly and Company, priority 2010, dated 2012) can be followed below.

Structures are written as SMILES. Counter-ions that a name gives are not always drawn.

Assay [1] has as its target T1, Met (pY1349) in NCl-H460 cells (Homo sapiens, UniProt P08581).
T1 construct: host or cells: NCI-H460
Nature of the assay: HGF stimulated Met (pY1349) NCI-H460 cell-based ELISA. As to conditions: HGF 100 ng/mL stimulated NCI-H460 cells; read-out: relative IC50, H460 assay (c-Met phosphorylation). How it is done: NCl—H460 cells (purchased from ATCC) are cultured in RPMI 1640 media (Invitrogen) supplemented with 10% Fetal Bovine Serum (FBS) and plated (prior to becoming 70% confluent) in 96-well flat-bottom plates at a density of 20,000 cells per well in 80 μL volume. The cells are then incubated overnight in a cell culture incubator (5% CO2, 95% Relative Humidity (RH) and 37° C.) and allowed to attach to the plate. The following morning the cells are washed with 2 volumes of a Reduced Serum Media (RSM, RPMI 1640 media supplemented with 0.5% FBS). After removal of the last wash, 80 μL of RSM is added to each well of the cell plates. The cell plates are incubated for 2.5 h in a cell culture incubator, and then dosed with compounds. Compound inhibitors are first solubilized at 10 mM in 100% DMSO and then diluted to 100 μM with 2% DMSO RSM. […] After 1 h capture (at RT) the MSD® plate wells are washed with 1× Tris Wash Buffer, and then 150 μL of 1× Read Buffer T (with surfactant, MSD®) is added. Immediately after the addition of the Read Buffer, the plates are analyzed with a SECTOR 6000 MSD® Imager plate reader. Relative IC50 values are determined using MSD activity units by calculating percent inhibition with respect to on-plate “MIN” and “MAX” controls and then fitting the percent inhibition values and ten-point dose response data to a four-parameter logistic equation.

Assay [2] concerns the target cMet enzyme (Homo sapiens, UniProt P08581). Nature of the assay: cMet Homogeneous Time Resolved Fluorescence (HTRF) in vitro assay. The assay is classed as biochemical. As to conditions: relative IC50; read-out: c-Met IC50 (HTRF). An excerpt:
This assay is based on HTRF technology and it is used to detect the phosphorylation of biotin labeled tyrosine peptide by cMet enzyme. After the reaction is completed, XL665 labeled streptavidin is used to recognize the biotin unit and a Europium (Eu3+) labeled anti-phospho-tyrosine antibody is used to recognize the phosphorylated tyrosine. The detection process relies on the transfer of energy between the excited Eu3+ and the XL665 labeled streptavidin. The aim of this protocol is to calculate the ability of test compounds to inhibit the phosphorylation of the product of this reaction and calculate their relative IC50 values.
A reference compound, if desired, may be prepared as a 1 mM stock solution in 100% DMSO and test compounds are prepared as 10 mM stock solutions in 100% DMSO. 1 mM reference compound and 10 mM test compounds are pre-diluted to 8 μM and 80 μM 10% DMSO solutions in a 96-well dilution plate. Compounds are serially diluted (1:3) using Tecan Freedom EVO 200 and 10-point dilution curves are generated for each of the compounds tested. 10 μL of serially diluted compounds are transferred to a 96-well assay plate using Temo (Tecan). […] The assay plate is incubated at RT for 60 min before reading the fluorescence signals at 620 nm emission and 665 nm […] in a Victor3 instrument (PerkinElmer Corporation). […]
Background: In TR-FRET formats the signal depends on donor and acceptor labels being close together.

T1 sequence (P08581 25-1390): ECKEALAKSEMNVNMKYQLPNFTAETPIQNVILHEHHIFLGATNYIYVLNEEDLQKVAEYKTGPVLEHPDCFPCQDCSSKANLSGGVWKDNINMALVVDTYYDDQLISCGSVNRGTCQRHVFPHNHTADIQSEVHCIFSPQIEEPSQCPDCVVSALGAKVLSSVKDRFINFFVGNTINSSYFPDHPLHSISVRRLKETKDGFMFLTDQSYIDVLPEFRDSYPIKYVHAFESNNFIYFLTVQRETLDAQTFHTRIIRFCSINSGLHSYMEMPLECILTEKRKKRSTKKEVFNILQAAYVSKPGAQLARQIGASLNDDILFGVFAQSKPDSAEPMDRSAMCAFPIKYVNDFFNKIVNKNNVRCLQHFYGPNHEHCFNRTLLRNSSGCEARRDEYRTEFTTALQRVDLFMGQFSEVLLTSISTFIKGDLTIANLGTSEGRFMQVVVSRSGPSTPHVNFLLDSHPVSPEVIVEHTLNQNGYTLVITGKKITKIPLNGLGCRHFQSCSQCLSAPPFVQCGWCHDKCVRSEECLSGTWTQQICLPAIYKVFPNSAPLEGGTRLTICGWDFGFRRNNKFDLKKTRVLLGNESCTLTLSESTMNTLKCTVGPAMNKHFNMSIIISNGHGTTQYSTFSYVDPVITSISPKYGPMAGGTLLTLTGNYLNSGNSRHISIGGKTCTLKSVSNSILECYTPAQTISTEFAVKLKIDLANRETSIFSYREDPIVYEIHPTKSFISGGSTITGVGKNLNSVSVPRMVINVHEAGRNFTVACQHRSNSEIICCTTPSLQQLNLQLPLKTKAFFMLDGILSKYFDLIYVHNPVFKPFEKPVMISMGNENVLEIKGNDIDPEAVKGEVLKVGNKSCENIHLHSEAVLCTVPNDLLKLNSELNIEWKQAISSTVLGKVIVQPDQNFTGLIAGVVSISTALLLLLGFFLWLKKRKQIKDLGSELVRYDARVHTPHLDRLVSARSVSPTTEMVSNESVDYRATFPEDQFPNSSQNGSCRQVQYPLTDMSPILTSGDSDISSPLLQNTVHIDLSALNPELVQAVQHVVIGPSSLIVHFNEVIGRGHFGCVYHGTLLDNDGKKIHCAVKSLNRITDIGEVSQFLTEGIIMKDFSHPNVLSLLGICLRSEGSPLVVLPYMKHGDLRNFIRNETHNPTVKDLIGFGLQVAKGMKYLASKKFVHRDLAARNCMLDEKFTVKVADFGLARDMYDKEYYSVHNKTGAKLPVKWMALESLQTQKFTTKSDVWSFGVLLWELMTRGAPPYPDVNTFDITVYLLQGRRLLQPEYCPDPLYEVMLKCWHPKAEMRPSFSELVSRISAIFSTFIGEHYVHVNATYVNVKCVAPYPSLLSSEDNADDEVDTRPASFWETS
Sequence of cMet enzyme (P08581 25-1390): as above

In the case of `Cn1cc(-c2ccc3nnc(Sc4ccc5nn(C)cc5c4)n3n2)cn1` [mesylate salt form of example 1], the 50% inhibitory concentration (IC50) in assay [1] amounted to 38 nM; in assay [2] it was 25 nM.
